Data: paper doi:10.1101/2024.06.25.600598v1 (biorxiv, 2024)
Where a name gives a salt, the structure may show the parent alone.

Columns and labels:
[1] = target: T1, fibroblast activation protein (FAP; rhFAP, SLIN-tagged hFAP) (Homo sapiens, UniProt Q12884); assay: DIANA competition with DNA-linked probe, qPCR; format: binding
T1 sequence (Q12884 35-760): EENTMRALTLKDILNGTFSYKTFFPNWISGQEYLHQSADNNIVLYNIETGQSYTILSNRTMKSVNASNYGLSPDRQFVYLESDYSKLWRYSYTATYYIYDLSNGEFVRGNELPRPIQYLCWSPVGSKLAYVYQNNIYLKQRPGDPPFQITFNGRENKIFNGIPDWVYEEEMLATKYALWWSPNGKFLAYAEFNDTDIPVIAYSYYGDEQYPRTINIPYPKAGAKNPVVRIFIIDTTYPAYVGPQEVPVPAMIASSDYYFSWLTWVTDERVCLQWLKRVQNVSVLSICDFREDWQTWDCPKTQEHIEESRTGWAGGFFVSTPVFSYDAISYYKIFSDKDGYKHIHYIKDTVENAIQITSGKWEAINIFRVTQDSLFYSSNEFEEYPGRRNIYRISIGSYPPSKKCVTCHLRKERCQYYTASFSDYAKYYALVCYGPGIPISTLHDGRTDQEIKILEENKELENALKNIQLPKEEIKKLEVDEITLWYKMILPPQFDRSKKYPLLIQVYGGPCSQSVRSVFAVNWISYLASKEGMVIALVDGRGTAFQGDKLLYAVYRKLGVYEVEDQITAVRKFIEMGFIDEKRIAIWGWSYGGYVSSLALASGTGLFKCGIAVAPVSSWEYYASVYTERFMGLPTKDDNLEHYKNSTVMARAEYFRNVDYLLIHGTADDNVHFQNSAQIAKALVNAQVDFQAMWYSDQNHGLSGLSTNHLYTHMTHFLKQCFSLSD

[2] = target: T1, fibroblast activation protein (FAP; rhFAP, SLIN-tagged hFAP); assay: biochemical
[3] = target: T1, fibroblast activation protein (FAP; rhFAP, SLIN-tagged hFAP); conditions: 2 µM; inhibitor
[4] = target: T1, fibroblast activation protein (FAP; rhFAP, SLIN-tagged hFAP); assay: fluorogenic AMC substrate activity assay; format: biochemical
[5] = target: T1, fibroblast activation protein (FAP; rhFAP, SLIN-tagged hFAP); assay: biochemical; format: binding

| Ki [1] [µM] | Ki [2] [µM] | Relative inhibition (%), activity assay [3] [%] | IC50 [4] [µM] | Ki [5] [µM] | SMILES |
| --- | --- | --- | --- | --- | --- |
| 0.0007 ± 0.0001 | – | – | – | – | Cc1ccc(C)c(CNC(=O)C(=O)[C@@H]2CCCN2C(=O)CNC(=O)c2ccnc3ccccc23)c1 [6f] |
| – | 0.9 | 28 | – | – | CCOc1ccc(Nc2ccc(/C(=C3/C=CC(=[N+](CC)Cc4cccc(S(=O)(=O)[O-])c4)C=C3C)c3ccc(N(CC)Cc4cccc(S(=O)(=O)O)c4)cc3C)cc2)cc1 [Brilliant blue G-250] |
| – | 3.3 | 27 | – | – | CNC(=O)c1ccc(-c2cnc3ncc(Cc4ccc5ncccc5c4)n3n2)cc1F [Capmatinib] |
| – | 7.9 | 26 | – | – | CCOC(=O)n1ccn(C)c1=S [Carbimazole] |
| – | 3.9 | 25 | – | – | CCN1CCN(C(=O)N[C@@H](C(=O)N[C@@H]2C(=O)N3C(C(=O)O)=C(CSc4nnnn4C)CS[C@H]23)c2ccc(O)cc2)C(=O)C1=O [Cefoperazone (sodium salt)] |
| – | 7.6 | 18 | – | – | CC(=O)OCC1=C(C(=O)O)N2C(=O)[C@@H](NC(=O)CSc3ccncc3)[C@H]2SC1 [Cephapirin (sodium)] |
| – | 1.7 | 35 | – | – | CCCC(=O)OCOC(=O)C1=C(C)NC(C)=C(C(=O)OC)C1c1cccc(Cl)c1Cl (stereo not shown) [Clevidipine] |
| – | 6.4 | 23 | – | – | COc1cccc2c1C(=O)c1c(O)c3c(c(O)c1C2=O)C[C@@](O)(C(C)=O)C[C@@H]3O[C@H]1C[C@H](N)[C@H](O)[C@H](C)O1 [Daunorubicin (hydrochloride)] |
| – | 5.5 | 10 | – | – | CC/C=C\C/C=C\C/C=C\C/C=C\C/C=C\C/C=C\CCC(=O)O [Docosahexaenoic acid] |
| – | 2 | 16 | – | – | COc1ccc(-c2cc(=O)c3c(O)c(OC)c(O)cc3o2)cc1OC [Eupatilin] |
| – | 5.7 | 21 | – | – | Cc1cc(-c2ccc(/N=N/c3ccc4c(S(=O)(=O)O)cc(S(=O)(=O)O)c(N)c4c3O)c(C)c2)ccc1/N=N/c1ccc2c(S(=O)(=O)O)cc(S(=O)(=O)O)c(N)c2c1O [Evans Blue] |
| – | 6.9 | 10 | – | – | CCc1c(Cl)c(O)c(Cl)c(O)c1C(=O)O[C@H]1[C@H](O)[C@H](OC)[C@H](OC/C2=C\C=C\C[C@H](O)/C(C)=C/[C@H](CC)[C@@H](O[C@@H]3OC(C)(C)[C@@H](OC(=O)C(C)C)[C@H](O)[C@@H]3O)/C(C)=C/C(C)=C/C[C@@H]([C@@H](C)O)OC2=O)O[C@@H]1C [Fidaxomicin] |
| – | – | – | > 20 | – | O=C1OC2(c3ccc(O)cc3Oc3cc(O)ccc32)c2ccccc21 [Fluorescein (sodium)] |
| – | 8.8 | 16 | – | – | CCC1=C(C)CN(C(=O)NCCc2ccc(S(=O)(=O)NC(=O)N[C@H]3CC[C@H](C)CC3)cc2)C1=O [Glimepiride] |
| – | 3.6 | 19 | – | – | CC(=O)[C@]1(O)Cc2c(O)c3c(c(O)c2[C@@H](O[C@H]2C[C@H](N)[C@H](O)[C@H](C)O2)C1)C(=O)c1ccccc1C3=O [Idarubicin (hydrochloride)] |
| – | 4.1 | 20 | – | – | CC1(C)C(/C=C/C=C/C=C/C=C2\N(CCCCS(=O)(=O)O)c3ccc4ccccc4c3C2(C)C)=[N+](CCCCS(=O)(=O)[O-])c2ccc3ccccc3c21 [Indocyanine green] |

| Ki [1] [µM] | Ki [2] [µM] | Relative inhibition (%), activity assay [3] [%] | IC50 [4] [µM] | Ki [5] [µM] | SMILES |
| --- | --- | --- | --- | --- | --- |
| – | 9.7 | 35 | – | – | Cc1cnc(C(=O)N[C@H]2CCCCC/C=C\[C@@H]3C[C@@]3(C(=O)NS(=O)(=O)C3CC3)NC(=O)[C@@H]3C[C@@H](Oc4nc5ccccc5c5ccccc45)CN3C2=O)cn1 [Paritaprevir] |
| – | 0.6 | 19 | – | – | COc1cccc2c1C(=O)c1c(O)c3c(c(O)c1C2=O)C[C@@](O)(C(=O)CO)C[C@@H]3O[C@H]1C[C@H](N)[C@H](O[C@@H]2CCCCO2)[C@H](C)O1 [Pirarubicin (Hydrochloride)] |
| – | 7.1 | 19 | – | – | COc1ccc2nc3cc(Cl)ccc3c(Nc3cc(CN4CCCC4)c(O)c(CN4CCCC4)c3)c2n1 [Pyronaridine (tetraphosphate)] |
| – | 7.2 | 13 | – | – | C[n+]1cc2c3c(ccc2c2ccc4cc5c(cc4c21)OCO5)OCO3 [Sanguinarine (chloride)] |
| – | 9.1 | 12 | – | – | Cc1ccc(C(=O)Nc2ccc(S(=O)(=O)O)c3cc(S(=O)(=O)O)cc(S(=O)(=O)O)c23)cc1NC(=O)c1cccc(NC(=O)Nc2cccc(C(=O)Nc3cc(C(=O)Nc4ccc(S(=O)(=O)O)c5cc(S(=O)(=O)O)cc(S(=O)(=O)O)c45)ccc3C)c2)c1 [Suramin (sodium salt)] |
| – | 3 | 12 | – | – | C=Cc1c(C)c2cc3nc(c(CC(=O)N[C@@H](CC(=O)O)C(=O)O)c4[nH]c(cc5nc(cc1[nH]2)C(C)=C5CC)c(C)c4C(=O)O)[C@@H](CCC(=O)O)[C@@H]3C [Talaporfin (sodium)] |
| – | 8.7 | 22 | – | – | CCN(c1cc(-c2ccc(CN3CCOCC3)cc2)cc(C(=O)NCc2c(C)cc(C)[nH]c2=O)c1C)C1CCOCC1 [Tazemetostat (hydrobromide)] |
| – | – | – | – | 0.64 | C[C@@H](O)[C@H]1C(=O)N2C(C(=O)OCOC(=O)C(C)(C)C)=C(SC3CN(C4=NCCS4)C3)[C@H](C)[C@H]12 [Tebipenem pivoxil] |
| – | 2.9 | 30 | – | – | CCN(CC)CCOc1ccc2c(c1)C(=O)c1cc(OCCN(CC)CC)ccc1-2 [Tilorone (dihydrochloride)] |
| – | 5.9 | 19 | – | – | CN1CCN(c2ccc(Nc3ncc4cc5n(c4n3)C3(CCCCC3)CNC5=O)nc2)CC1 [Trilaciclib (hydrochloride)] |
| – | 9.4 | 29 | – | – | COc1cc2/c(=N/c3ccc(Br)cc3F)nc[nH]c2cc1OCC1CCN(C)CC1 [Vandetanib] |
| – | – | – | – | 0.6 | C=CC1=C(C)C2=Cc3c(C=C)c(C)c4[n]3[Fe]([Cl])[n]3c(c(C)c(CCC(=O)O)c3=CC3=NC(=C4)C(C)=C3CCC(=O)O)=CC1=N2 [hemin] |
| – | – | 45 | – | 2.2 | CC(C)(C)C(=O)OCOC(=O)[C@@H]1N2C(=O)[C@@H](N=CN3CCCCCC3)[C@H]2SC1(C)C [pivmecillinam] |
| – | – | 46 | – | 0.8 | C=CC1=C(C)c2cc3[nH]c(cc4nc(cc5[nH]c(cc1n2)c(C)c5CCC(=O)O)C(CCC(=O)O)=C4C)c(C)c3C=C [protoporphyrin IX] |
| – | – | 9 | – | 0.1 | O=C1OC2(c3cc(I)c(O)c(I)c3Oc3c2cc(I)c(O)c3I)c2c(Cl)c(Cl)c(Cl)c(Cl)c21 [rose bengal] |
